According to patent US20240252581A1, “COMPOSITIONS AND METHODS FOR TREATING RESPIRATORY DISTRESS” (S.I.S. SHULOV INNOVATIVE SCIENCE LTD., priority 2021, published 2024):
Square brackets hold non-standard residues; d marks the D form. * marks the point of attachment. pGlu = O=C1CC[C@@H](C(=O)O)N1; Octanoyl = CCCCCCCC(=O)*

Assay: Oxygen saturation in mouse model of LPS-inflamed lungs (Rodent Pulse Oximeter)
Assay type: in vivo, Balb/C female mice
Description: Evaluation of the effect of ZEP3Na administration via inhalation on oxygen saturation in a mouse model of inflamed lungs by the lipopolysaccharides (LPS) was performed. Oxygen saturation testing was performed at several time points on mice that have been anesthetized by isoflurane. A sensor was attached to the hind foot of the mice and the percentage of oxygen in the blood was measured using the Rodent Pulse Oximeter instrument (Kent Scientific).
Following LPS intratracheal instillation, a marked reduction in blood oxygen saturation levels was detected. ZEP3Na was then administered by inhalation at two doses 6 h and 14 h after LPS administration and the effect of ZEP3Na on blood oxygen saturation was monitored 0, 2, 6, 12, 24 and 48 hours following ZEP3Na administration. Saturation data was analyzed by ANOVA followed by Tukey-Kramer test. Significance level was defined as ∝=0.05.

With “pGlu-Asn-Trp-Lys(Octanoyl)-OH ([pGlu]NWK(Octanoyl)-OH; SMILES CCCCCCCC(=O)NCCCC[C@H](NC(=O)[C@H](Cc1c[nH]c2ccccc12)NC(=O)[C@H](CC(N)=O)NC(=O)[C@@H]1CCC(=O)N1)C(=O)O) [ZEP3]” the “time after administration over which increase in oxygen saturation was exerted” value (acute inflamed lung model) was “at least 48 hours” and the “time following treatment at which increase in oxygen saturation is statistically significant” value (administration by inhalation, LPS model) was 12 h.
